Patent publication EP1332756A2, “Compositions and methods for restoring a normal pattern of imprinting to cells” (priority 1996, dated 1998)
Read-outs that look alike come from different tables or passages of the source.

Assays:
[1] = tested on: tumor cells with LOI; assay: In vitro effect of NCI lead compounds on LOI (allele ratio), saline as negative control; assay type: cell-based; settings: for effective concentration / Allele ratio 1.0=complete LOI: in vitro; for Allele ratio 1.0=complete LOI: at the effective concentration, saline 1.0
Method: Based on the results showing that 5-aza-2'-deoxycytidine can restore normal imprinting to tumor cells with LOI, an analysis was performed using the drug discovery program described in Weinstein et al. (1997) Science 275:343-349, herein incorporated by reference. […] The highest correlations were as follows: 127716, 619003, 626883, 624646, 145118, 1850512, 626884, 626886, 622810, 176889, 622616, 620358, 619948, 622461, 624645, 15309, 638737, 294734, 112152, 153174 204816, 79037, 628082, 620319 (NCI reference numbers). These are considered lead compounds to determine whether they will restore normal imprinting or could be chemically modified to do so.
As a first test of this approach, the in vitro effect of 12 of these compounds were analyzed with saline as a negative control.

[2] = tested on: cancer cells; assay: Hollow fiber assay of in vivo cytotoxic effects; settings: threshold for referral for xenograft testing
Text: The compounds were additionally tested for their in vivo cytotoxic effects on cancer cells, using a hollow fiber assay as described in Hollingshead et al. (1995) Life Sci. 57:131-141, herein incorporated by reference. […] Thus, several new potential effective chemotherapeutics were identified for tumors and/or doses not taught in the literature.

[3] = tested on: Cells having LOI, (Group A); assay: NCI database search for compounds effective against cell lines with LOI (Group A) but not those without LOI (Group B); settings: lead compounds still to be tested
[4] = Cytotoxicity of 24 hour 5-azaCdR treatment in cell culture; assay type: cell-based; settings: human, jeg-3 and colo-205 cells, Concentrations of 0.3-3.0 µM
Method: (§1) Cell Culture and Treatment With 5-azaCdR. JEG-3 human choriocarcinoma and COLO-205 human colon adenocarcinoma cell lines were obtained from ATTC. Cells were cultured in RPMI 1640, 10% fetal calf serum, 5% CO2, with antibiotics. 10^4-10^5 cells in 6 cm dishes were treated with 0.3-10 µM 5-azaCdR for 24 hours. Cultures were washed in Hank's buffered saline solution and grown to confluence. Concentrations of 0.3-3.0 µM caused minimal cytotoxicity (0-30%).

[5] = tested on: IGF2; assay: Allele-specific expression of IGF2 in tumor cells with LOI (RT-PCR, Apa I digestion); assay type: cell-based, human
Method: as §1
(§2) Analysis of Gene Expression. For quantitative analysis of gene expression, total RNA was isolated as described (Chomczynski, P. and Sacchi, N. (1987) Anal. Biochem. 162:156-159), and 10 µg was electrophoresed in 1.2% agarose gels containing formaldehyde, and was transferred to Hybond-N + membranes (Amersham) and hybridized as described with H19 and IGF2 probes (Steenrnan et al. (1994) Nature Genet. 7:433-439). Hybridization with GAPDH was used as a control for RNA loading. […] Each sample was analyzed in duplicate in the presence and absence of reverse transcriptase to exclude DNA contamination. Gels were blotted and hybridized with a ^32P-labeled internal specific oligonucleotide probe (Rainier et al. (1993) Nature 362:747-749), and quantified with a PhosphorImager (Molecular Dynamics).

[6] = tested on: H19; assay: Quantitative H19 expression in tumor cells with LOI (Northern blot, PhosphorImager); assay type: cell-based; settings: Homo sapiens, 24 h, read-out: increase in H19 expression
Method: as §1
Analysis of Gene Expression. For quantitative analysis of gene expression, total RNA was isolated as described (Chomczynski, P. and Sacchi, N. (1987) Anal. Biochem. 162:156-159), and 10 µg was electrophoresed in 1.2% agarose gels containing formaldehyde, and was transferred to Hybond-N + membranes (Amersham) and hybridized as described with H19 and IGF2 probes (Steenrnan et al. (1994) Nature Genet. 7:433-439). Hybridization with GAPDH was used as a control for RNA loading. For analysis of allele-specific expression, 0.5 µg RNA was treated with DNase I (Boehringer Mannheim), heated to 95°C for 7 minutes, and RT-PCR was performed as described for both IGF2 and H19 (Rainier et al. (1993) Nature 362:747-749), although nested PCR using primers HP1 and HP2 (Hashimoto et al. (1995) Nat. Genet. 9:109-110) was performed for H19 analysis. PCR products were digested with either Apa I (for IGF2 analysis) or Alu I (for H19 analysis) as described (Tadokoro et al. (1991) Nucleic Acids Res. 19:6967), and electrophoresed on 4% Nusieve-agarose (3:1) gels. Each sample was analyzed in duplicate in the presence and absence of reverse transcriptase to exclude DNA contamination. Gels were blotted and hybridized with a ^32P-labeled internal specific oligonucleotide probe (Rainier et al. (1993) Nature 362:747-749), and quantified with a PhosphorImager (Molecular Dynamics).

[7] = tested on: H19; assay: Allele-specific expression of H19 in tumor cells with LOI (RT-PCR, Alu I digestion); assay type: cell-based, human; settings: JEG-3 cells
Method: as §1, §2

[8] = tested on: H19 promoter CpG island; assay: Southern analysis of methylation of the H19 promoter CpG island (Pst I and Sma I); assay type: cell-based, human
Method: (§3) Analysis of DNA Methylation. For quantitative analysis of DNA methylation, genomic DNA was prepared as described (Rainier et al. (1993) Nature 362:747-749), and Southern analysis of methylation of the H19 promoter CpG island was performed as described (Reik et al. (1994) Hum. Mol. Genet. 4:2379-2385). Filters were hybridized with the 1.8 kb Pst I fragment of H19, which detects imprint-specific methylation (Steenman et al. (1994) Nature Genet. 7:433-439). For analysis of allele-specific methylation, 1 µg DNA was digested with BamH I or with BamH I plus Hpa
In order to determine whether treatment with 5-azaCdR altered methylation of this imprint-specific region, cells were digested with Pst I and Sma I, as described (Reik et al. (1994) Hum. Mol. Genet. 3:1297-1301). Normal cells show approximately 50% methylation, since the paternal allele is methylated and the maternal allele is unmethylated (Steenman et al. (1994) Nature Genet. 7:433-439; Moulton et al. (1994) Nature Genet. 7:440-447; Reik et al. (1994) Hum. Mol. Genet. 3:1297-1301). Cells with LOI show increased methylation, reflecting abnormal methylation of the maternal allele (Steenman et al. (1994) Nature Genet. 7:433-439; Moulton et al. (1994) Nature Genet. 7:440-447; Reik et al. (1994) Hum. Mol. Genet. 3:1297-1301). […]

[9] = tested on: H19; assay: Allele-specific methylation of H19 (Hpa II digestion, PCR, Alu I); assay type: cell-based, human; settings: Hpa II digestion before PCR (Fig. 2B)
Method: as §3
After digestion, enzymes were inactivated by heating to 100° for 10 min. 50 ng digested DNA was added to the PCR reaction mix in Buffer F (Invitrogen), containing primers HP1 (5'-TACAACC-ACTGCACTACCTG-3') and H3 (5'-[…]-3') (Hashimoto et al. (1995) Nat. Genet. 9:109-110). One initial cycle (94°C, 4 min.) was followed by 28 cycles of 94°C, 1 min., 60°C, 1 min., 72° C, 1 min. PCR products (227 bp) were digested with Alu I, electrophoresed on 3% Nusieve/1% agarose gels, transferred to Hybond-N+ membranes (Arnersham), and hybridized with an internal oligonucleotide probe HP2 (5'-[…]-3'), and then quantified with a PhosphorImager (Molecular Dynamics). […]

[10] = tested on: IGF2; assay: IGF2 methylation after 5-azaCdR treatment; assay type: cell-based, human; settings: data not shown
Method: as §3

[11] = tested on: IGF2; settings: mouse cells with maternal disomy for chromosome 7 (Eversole-Cire et al.); cited from earlier work
[12] = tested on: IGF2; settings: normal human brain cells (Hu et al.); cited from earlier work

With `CC1=CC(=O)C(C)=CC1=O` [compound 15309, phlorone] the effective concentration [1] was 10^-3M, the “Allele ratio 1.0=complete LOI” value [1] was 1.3 and the “total effectiveness score > 20 or an in vivo cell kill effect seen directly” value [2] was “scored above the threshold for referral for xenograft testing”.

With lankacyclin [compound 145118] the “alteration in imprinting and/or cytotoxic effects” value (“alteration” for short) ([1]; additional drugs tested) was “at least some alteration in imprinting and/or cytotoxic effects”, the effective concentration [1] was 10^-4M and the “Allele ratio 1.0=complete LOI” value [1] was 1.8.

For aspiculamycin HCL [200692-A], the Predicted concentration [3] was 10^-2M.

In the case of gndimacrin [252940-S], the Predicted concentration [3] is reported as 10^-4M.

In the case of “Methyl-13-hydroxy-15-oxokaurenoate [compound 620358]”, the “alteration” value ([1]; additional drugs tested) is reported as “at least some alteration in imprinting and/or cytotoxic effects”, the effective concentration [1] is reported as 10^-4M and the “Allele ratio 1.0=complete LOI” value [1] is reported as 2.6. For the same compound, the “total effectiveness score > 20 or an in vivo cell kill effect seen directly” value [2] was “scored above the threshold for referral for xenograft testing”.

With `COc1nc(NC2OC(CO)C(O)C(O)C2O)c(N)c(=O)[nH]1` (stereo not drawn) [compound 624646] the effective concentration [1] was 10^-4M, the “Allele ratio 1.0=complete LOI” value [1] was 2.2 and the “total effectiveness score > 20 or an in vivo cell kill effect seen directly” value [2] was “scored above the threshold for referral for xenograft testing”.

In the case of `Nc1ccccc1` [compound 176889, benzenamine], the “alteration” value ([1]; additional drugs tested) is reported as “at least some alteration in imprinting and/or cytotoxic effects” and the “Allele ratio 1.0=complete LOI” value [1] is reported as 3.7.

In the case of `CC(C)/C(Cl)=N\OC(=O)NNc1ccccc1` [compound 682841], the Predicted concentration [3] is reported as 10^-4M.

In the case of `CC(=O)O[C@@H]1[C@@H](C)/C=C/C(C)(C)[C@H](OC(C)=O)C[C@@H](OC(C)=O)/C(C)=C/[C@H]2[C@@H](OC(=O)c3ccccc3)[C@@H](C)C[C@]12OC(C)=O` [compound 666860, euphornin D], the Predicted concentration [3] is reported as 10^-4M.

With `C/C=C1/C(=O)O[C@]23C=C[C@@H]4C(C(=O)OC)=CO[C@H](O[C@@H]12)[C@@H]43` [compound 112152, plumericine] the effective concentration [1] was 10^-3M, the “Allele ratio 1.0=complete LOI” value [1] was 1.2 and the “total effectiveness score > 20 or an in vivo cell kill effect seen directly” value [2] was “scored above the threshold for referral for xenograft testing”.

With `C#CC[C@@]12CC(=O)C[C@@H]1CCC1(C2)OCCO1.C#CC[C@]12CC(=O)CC[C@H]1CC(=O)C2` [compound 619948] the effective concentration [1] was 10^-4M and the “Allele ratio 1.0=complete LOI” value [1] was 1.8.

With cis-CCNU [compound 153174] the effective concentration [1] was 10^-4M and the “Allele ratio 1.0=complete LOI” value [1] was 1.6.

For `Nc1ncn([C@H]2C[C@H](O)[C@@H](CO)O2)c(=O)n1` [5-azaCdR, 5-aza-2'-deoxycytidine], the cytotoxicity at 24 h [4] was 0 to 30%, the “allelic expression of IGF2” value ([5]; COLO-205 colorectal carcinoma cells (data not shown)) was “a switch from biallelic to predominately monoallelic expression of IGF2” and the “allelic expression of IGF2” value ([5]; JEG-3 cells, single 24 hr treatment with increasing doses (0.3, 0.6, 1.0 µM)) was “unequal expression of the two IGF2 alleles, with preferential expression of the allele lacking the Apa I polymorphic site”. It also gave a fold induction at 1 µM ([6]; COLO-205 cells, 1.0 µM (data not shown)) of 20, a fold induction at 0.3 µM ([6]; JEG-3 cells, 0.3 µM) of 30 and a fold induction at 1 µM ([6]; JEG-3 cells, 1.0 µM) of 50. For the same compound, the “allele-specific expression of H19” value [7] was “monoallelic expression of the allele containing the Alu I polymorphic site”, the “changes in DNA methylation of the H19 CpG island” value ([8]; COLO-205 (data not shown)) was “reproducible” and the “methylation of the H19 CpG island” value ([8]; after treatment with 0.3 or 1.0 µM (Fig. 2A), normal cells approximately 50%) was “approximately 50%”. The “allele specificity of altered H19 methylation” value [9] was “one allele was preferentially affected”, the IGF2 methylation [10] was “not affected” and the “total effectiveness score > 20 or an in vivo cell kill effect seen directly” value [2] was “scored above the threshold for referral for xenograft testing”. For the same compound, the “expression of the maternal IGF2 gene” value [11] was “epigenetic activation of the normally silent maternal IGF2 gene” and the “allelic expression of IGF2” value [12] was “switched IGF2 from a pattern of preferential expression of one allele to equal biallelic expression”.

In the case of Blue Platinum uracil [compound 180512], the “alteration” value [1] is reported as “at least some alteration in imprinting and/or cytotoxic effects”, the effective concentration [1] is reported as 10^-2M and the “Allele ratio 1.0=complete LOI” value [1] is reported as 45.0.

In the case of `O=C1ON(Cc2ccccc2)C(c2ccccc2)N1c1ccccc1` (stereo not drawn) [compound 624645], the effective concentration [1] is reported as 10^-4M and the “Allele ratio 1.0=complete LOI” value [1] is reported as 1.8.
